Measurements reported in patent US12133909B2, “Use of evodone or a derivative thereof as a cooling agent” (ROBERTET S.A., priority 2019, dated 2024).

Columns and labels:
[1] = Cooling effect of creams rated on a 0 to 3 scale after application onto the forearms; type: in vivo, human; details: 1% in cream, forearm sensory score
Protocol: To measure the cooling effect, 100 mg of one of the creams 1 to 4 or of a placebo are applied onto the inner side of both forearms of persons who have agreed to test the product. After one minute, each participant is asked to rate the cooling effect on a scale of 0 to 3 (i.e. score), with 3 being the maximum effect.
Each cream (including the placebo) is applied randomly and blindly to the forearms of 17 people.

[2] = Skin temperature by thermal camera after application of creams on the back; type: in vivo, human; details: 1% in cream
Protocol: For this study, the cooling effect of 5 compositions containing different cooling agents is evaluated in vivo according to the following protocol.
22 female subjects aged from 18 to 63 were selected. On the back of each subject, between the two scapulas, six areas of 3 cm×2.5 cm are delimited. On 5 areas chosen each time randomly, 15 mg of the compositions to be tested are applied. Nothing is applied onto the sixth area (i.e. control).
From the time of application of the creams (T0), the skin temperature of the different zones is measured on each subject using a thermal camera (Thermovision SC6000HS (Flirsystems)—resolution 640×512—frequency 125 Hz) at the following times: T0, T0+15 s, T0+30 s, T0+45 s, T0+1 min, T0+1 min30 s, T0+2 min, T0+3 min, T0+4 min, T0+5 min, T0+6 min, T0+8 min and T0+10 min. The measurements are performed at 21° C.±1.5° C., the subject lying on their stomach and motionless. The temperatures are measured with an accuracy of around 0.10° C.
A variance test (ANOVA) is used to compile and validate the results. […]
If these two conditions are met, the statistical analysis allowing comparing the parameters measured at the different times is conducted by a one-factor variance analysis (ANOVA) test on repeated measurements. […]

## Cc1coc2c1C(=O)CC(C)C2 (stereo not drawn) [evodone, 6-dimethyl-6,7-dihydro-5H-1-benzofuran-4-one]
[1]
  Cooling effect compared with citriodiol or cubebol: cooling effect similar to that which can be provided by molecules such as citriodiol or cubebol
  Cooling effect compared with menthyl lactate (Frescolat ML): significantly greater than that obtained with menthyl lactate
[2]
  Cooling effect compared with menthyl lactate, citriodiol or cubebol: cooling effect similar to that which can be provided by molecules such as menthyl lactate
